# Test results from US20240092758A1, “IMIDAZOLO INDAZOLE COMPOUNDS AS JAK INHIBITORS” (Theravance Biopharma R&D IP, LLC, priority 2021, published 2024).
# Tests used:
# [1] = tested on: IL-13 induced STAT6 phosphorylation in BEAS-2B human lung epithelial cells; assay: Cellular JAKI potency assay (BEAS-2B); type: cell-based; conditions: Homo sapiens, BEAS-2B, BEAS-2B cells, read-out: BEAS2B pIC50 (converted)
# Method: The JAKI cellular potency assay was carried out by measuring inhibition of interleukin-13 (IL-13, R&D Systems) induced STAT6 phosphorylation in BEAS-2B human lung epithelial cells (ATCC). BEAS-2B cells were grown at 37° C. in a 5% CO2 humidified incubator in 50% DMEM/50% F-12 medium (Life Technologies) supplemented with 10% FBS (Hyclone), 100 U/mL penicillin, 100 μg/mL streptomycin (Life Technologies), and 2 mM GlutaMAX (Life Technologies). On day 1 of the assay, cells were seeded at a 7,500 cells/well density in white poly-D-lysine-coated 384-well plates (Corning) with 25 μL medium and were allowed to adhere overnight in the incubator. On day 2 of the assay, the medium was removed and replaced with 12 μL of assay buffer (Hank's Balanced Salt Solution/HBSS, 25 mM HEPES, and 1 mg/ml bovine serum albumin/BSA) containing dose-responses of test compounds. Compounds were serially diluted in DMSO and then diluted another 1000-fold in media to bring the final DMSO concentration to 0.1%. Cells were incubated with test compounds at 37° C. for 1 h and followed by the addition of 12 μl of pre-warmed IL-13 (80 ng/mL in assay buffer) for stimulation. After incubating at 37° C. for 30 min, the assay buffer (containing compound and IL-13) was removed, and 10 μL of cell lysis buffer (25 mM HEPES, 0.1% SDS, 1% NP-40, 5 mM MgCl2, 1.3 mM EDTA, 1 mM EGTA, supplemented with Complete Ultra mini protease inhibitors and PhosSTOP from Roche Diagnostics). The plates were shaken at ambient temperature for 30 min before the addition of detection reagents. Levels of pSTAT6 were measured using the AlphaLISA SureFire Ultra pSTAT6 (Tyr641) assay kit from PerkinElmer. For dose-response analysis, percent inhibition data were plotted vs. compound concentrations, and IC50 values were determined from a 4-parameter robust fit model with the Graphpad Prism software. Results are expressed as the negative logarithm of the IC50 value, pIC50.
# Test compounds having a lower IC50 value or higher pIC50 value in this assay show greater inhibition of IL-13 induced STAT6 phosphorylation.
# [2] = target: JAK1 (Homo sapiens (Human), UniProt P23458); assay: Biochemical JAK kinase assay (LanthaScreen), JAK1; conditions: for Ki: read-out: JAK1 pKi (converted)
# Method: (§1) A panel of four LanthaScreen JAK biochemical assays (JAK1, 2, 3 and Tyk2) were carried in a common kinase reaction buffer (50 mM HEPES, pH 7.5, 0.01% Brij-35, 10 mM MgCl2, and 1 mM EGTA). Recombinant GST-tagged JAK enzymes and a GFP-tagged STAT1 peptide substrate were obtained from Life Technologies.
# (§2) Serially diluted compounds were pre-incubated with each of the four JAK enzymes and the substrate in white 384-well microplates (Corning) at ambient temperature for 1 h. ATP was subsequently added to initiate the kinase reactions in 10 μL total volume, with 1% DMSO. The final enzyme concentrations for JAK1, 2, 3 and Tyk2 are 4.2 nM, 0.1 nM, 1 nM, and 0.25 nM respectively; the corresponding Km ATP concentrations used are 25 μM, 3 μM, 1.6 μM, and 10 μM; while the substrate concentration is 200 nM for all four assays. Kinase reactions were allowed to proceed for 1 hour at ambient temperature before a 10 μL preparation of EDTA (10 mM final concentration) and Tb-anti-pSTAT1 (pTyr701) antibody (Life Technologies, 2 nM final concentration) in TR-FRET dilution buffer (Life Technologies) was added. The plates were allowed to incubate at ambient temperature for 1 h before being read on the EnVision reader (Perkin Elmer). Emission ratio signals (520 nm/495 nm) were recorded and utilized to calculate the percent inhibition values based on DMSO and background controls.
# (§3) For dose-response analysis, percent inhibition data were plotted vs. compound concentrations, and IC50 values were determined from a 4-parameter robust fit model with the Prism software (GraphPad Software). Results were expressed as pIC50 (negative logarithm of IC50) and subsequently converted to pKi (negative logarithm of dissociation constant, Ki) using the Cheng-Prusoff equation.
# (§4) Test compounds having a lower Ki value or higher pKi value in the four JAK assays show greater inhibition of JAK activity.
# [3] = target: JAK2 (Homo sapiens (Human), UniProt O60674); assay: Biochemical JAK kinase assay (LanthaScreen), JAK2; conditions: for Ki: read-out: JAK2 pKi (converted)
# Method: as §1, §2, §3, §4
# Sequence of JAK2 (O60674 whole entry): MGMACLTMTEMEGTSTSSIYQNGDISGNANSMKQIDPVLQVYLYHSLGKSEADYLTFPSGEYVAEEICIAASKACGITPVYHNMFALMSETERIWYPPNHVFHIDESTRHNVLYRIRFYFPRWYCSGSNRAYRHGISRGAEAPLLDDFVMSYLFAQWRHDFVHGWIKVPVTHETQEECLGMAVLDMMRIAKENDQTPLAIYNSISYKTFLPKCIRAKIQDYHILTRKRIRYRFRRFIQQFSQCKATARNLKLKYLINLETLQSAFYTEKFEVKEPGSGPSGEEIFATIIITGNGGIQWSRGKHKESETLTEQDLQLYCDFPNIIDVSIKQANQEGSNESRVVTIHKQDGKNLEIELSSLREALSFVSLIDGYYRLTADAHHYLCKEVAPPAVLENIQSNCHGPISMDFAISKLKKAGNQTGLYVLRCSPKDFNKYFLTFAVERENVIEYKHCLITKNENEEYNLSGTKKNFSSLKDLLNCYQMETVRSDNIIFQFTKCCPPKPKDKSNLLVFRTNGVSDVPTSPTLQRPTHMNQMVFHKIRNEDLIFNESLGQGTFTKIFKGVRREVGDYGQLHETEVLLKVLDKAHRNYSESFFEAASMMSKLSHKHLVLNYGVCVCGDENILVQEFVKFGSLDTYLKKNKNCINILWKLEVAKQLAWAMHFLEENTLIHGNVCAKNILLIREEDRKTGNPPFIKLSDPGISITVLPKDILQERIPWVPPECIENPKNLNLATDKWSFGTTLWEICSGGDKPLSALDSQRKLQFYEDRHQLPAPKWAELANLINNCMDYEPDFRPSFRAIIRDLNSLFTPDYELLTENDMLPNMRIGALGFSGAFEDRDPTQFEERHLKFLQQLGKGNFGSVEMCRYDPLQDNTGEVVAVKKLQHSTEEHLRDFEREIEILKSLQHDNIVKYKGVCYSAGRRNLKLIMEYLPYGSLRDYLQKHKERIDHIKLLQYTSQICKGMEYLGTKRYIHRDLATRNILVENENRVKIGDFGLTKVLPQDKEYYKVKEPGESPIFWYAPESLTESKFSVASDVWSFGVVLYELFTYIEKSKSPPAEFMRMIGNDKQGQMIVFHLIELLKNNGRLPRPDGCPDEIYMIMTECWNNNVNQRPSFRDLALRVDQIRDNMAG
# Sequence of JAK1 (P23458 whole entry): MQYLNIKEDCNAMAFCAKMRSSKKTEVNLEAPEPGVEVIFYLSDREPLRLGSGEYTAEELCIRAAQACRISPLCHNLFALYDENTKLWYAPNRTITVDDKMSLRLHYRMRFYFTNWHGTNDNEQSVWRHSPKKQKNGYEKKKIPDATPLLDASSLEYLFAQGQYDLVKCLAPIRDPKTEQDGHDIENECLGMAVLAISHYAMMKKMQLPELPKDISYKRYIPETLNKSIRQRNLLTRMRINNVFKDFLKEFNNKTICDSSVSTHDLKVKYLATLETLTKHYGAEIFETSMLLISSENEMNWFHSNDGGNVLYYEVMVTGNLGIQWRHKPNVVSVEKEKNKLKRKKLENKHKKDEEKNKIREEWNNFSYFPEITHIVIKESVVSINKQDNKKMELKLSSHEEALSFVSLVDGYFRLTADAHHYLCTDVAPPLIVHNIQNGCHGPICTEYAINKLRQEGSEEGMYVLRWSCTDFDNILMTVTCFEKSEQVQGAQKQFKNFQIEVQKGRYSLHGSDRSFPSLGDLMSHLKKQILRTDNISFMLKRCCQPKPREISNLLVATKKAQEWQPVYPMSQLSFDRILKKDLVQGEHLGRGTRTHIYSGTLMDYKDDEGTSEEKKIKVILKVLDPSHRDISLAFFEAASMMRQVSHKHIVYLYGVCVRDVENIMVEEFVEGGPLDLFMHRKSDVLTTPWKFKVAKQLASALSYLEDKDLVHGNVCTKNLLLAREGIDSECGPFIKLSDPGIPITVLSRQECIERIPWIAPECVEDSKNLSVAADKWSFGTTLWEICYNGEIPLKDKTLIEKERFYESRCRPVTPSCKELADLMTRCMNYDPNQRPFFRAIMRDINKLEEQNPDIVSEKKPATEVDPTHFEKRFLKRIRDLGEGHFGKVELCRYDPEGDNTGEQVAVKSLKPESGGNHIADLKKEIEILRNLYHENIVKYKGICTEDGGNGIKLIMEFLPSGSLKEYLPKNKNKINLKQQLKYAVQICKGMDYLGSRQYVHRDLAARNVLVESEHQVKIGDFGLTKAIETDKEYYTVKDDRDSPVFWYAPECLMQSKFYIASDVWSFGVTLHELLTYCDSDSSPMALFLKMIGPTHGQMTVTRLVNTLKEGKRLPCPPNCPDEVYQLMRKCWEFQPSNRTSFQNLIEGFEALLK
SMILES,IC50 [1] [nM],Ki [2] [nM],Ki [3] [nM],JAK2 pKi [3],JAK1 pKi [2]
CCc1cc(O)ccc1-c1ccc2c(-c3nc(C4=C[C@@H](C)N[C@@H](C)C4)c[nH]3)n[nH]c2c1 (racemic) [Example 366],31.6 to 100,0.1 to 1,0.1 to 1,–,–
"CCc1cc(O)ccc1-c1ccc2c(-c3nc(C4=CCCN(C5CC(O)C5)C4)c[nH]3)n[nH]c2c1F (stereo not drawn) [Compound 10, 3-ethyl-4-(7-fluoro-3-(4-(1-(3-hydroxycyclobutyl)-1,2,5,6-tetrahydropyridin-3-yl)-1H-imidazol-2-yl)-1H-indazol-6-yl)phenol]",10 to 31.6,0.1 to 1,0.1 to 1,–,–
"CCc1cc(O)ccc1-c1ccc2c(-c3nc(C4=CCN(Cc5cn[nH]c5)CC4)c[nH]3)n[nH]c2c1F [Compound 11, 4-(3-(4-(1-((1H-pyrazol-4-yl)methyl)-1,2,3,6-tetrahydropyridin-4-yl)-1H-imidazol-2-yl)-7-fluoro-1H-indazol-6-yl)-3-ethylphenol]",10 to 31.6,0.1 to 1,–,A (A represents a pKi value ≥10 (Ki≤0.1 nM)),–
"CCc1cc(O)ccc1-c1ccc2c(-c3nc(C4=CCN(CC(=O)NC)CC4)c[nH]3)n[nH]c2c1F [Compound 12, 2-(4-(2-(6-(2-ethyl-4-hydroxyphenyl)-7-fluoro-1H-indazol-3-yl)-1H-imidazol-4-yl)-3,6-dihydropyridin-1(2H)-yl)-N-methylacetamide]",10 to 31.6,0.1 to 1,0.1 to 1,–,–
CCc1cc(O)ccc1-c1ccc2c(-c3nc(C4=CCCN(C(C)C)C4)c[nH]3)n[nH]c2c1 [Example 28],3.16 to 10,0.1 to 1,0.1 to 1,–,–
CCc1cc(O)ccc1-c1ccc2c(-c3nc(C4=CCN(CCC(C)(C)O)CC4)c[nH]3)n[nH]c2c1 [Example 35],3.16 to 10,–,–,A (A represents a pKi value ≥10 (Ki≤0.1 nM)),A (A represents a pKi value ≥10 (Ki≤0.1 nM))
CCc1cc(O)ccc1-c1ccc2c(-c3nc(C4=CCN(CCC(C)(C)O)CC4)c[nH]3)n[nH]c2c1F [Example 37],10 to 31.6,0.1 to 1,0.1 to 1,–,–
CCc1cc(O)ccc1-c1ccc2c(-c3nc(C4=CCN(C[C@@H](C)CO)CC4)c[nH]3)n[nH]c2c1F [Example 39],10 to 31.6,0.1 to 1,0.1 to 1,–,–
CCc1cc(O)ccc1-c1ccc2c(-c3nc(C4=CCN(C5CC(O)C5)CC4)c[nH]3)n[nH]c2c1F (stereo not drawn) [Example 40],10 to 31.6,–,–,A (A represents a pKi value ≥10 (Ki≤0.1 nM)),A (A represents a pKi value ≥10 (Ki≤0.1 nM))
CCc1cc(O)ccc1-c1ccc2c(-c3nc(C4=CCCN(CCO)C4)c[nH]3)n[nH]c2c1 [Example 41],3.16 to 10,0.1 to 1,–,A (A represents a pKi value ≥10 (Ki≤0.1 nM)),–
CCc1cc(O)ccc1-c1ccc2c(-c3nc(C4=CCCN(C5CC(O)C5)C4)c[nH]3)n[nH]c2c1 (stereo not drawn) [Example 43],3.16 to 10,0.1 to 1,–,A (A represents a pKi value ≥10 (Ki≤0.1 nM)),–
CCc1cc(O)ccc1-c1ccc2c(-c3nc(C4=CCCN(C(C)CO)C4)c[nH]3)n[nH]c2c1F (stereo not drawn) [Example 46],10 to 31.6,0.1 to 1,0.1 to 1,–,–
CCc1cc(O)ccc1-c1ccc2c(-c3nc(C4=CCCN(C[C@H](C)CO)C4)c[nH]3)n[nH]c2c1F [Example 48],10 to 31.6,0.1 to 1,0.1 to 1,–,–
CCc1cc(O)ccc1-c1ccc2c(-c3nc(C4=CCCN(C[C@@H](C)CO)C4)c[nH]3)n[nH]c2c1F [Example 49],10 to 31.6,0.1 to 1,0.1 to 1,–,–
CCc1cc(O)ccc1-c1ccc2c(-c3nc(C4=CCN(C5CC(O)C5)C4)c[nH]3)n[nH]c2c1 (stereo not drawn) [Example 52],3.16 to 10,–,–,A (A represents a pKi value ≥10 (Ki≤0.1 nM)),A (A represents a pKi value ≥10 (Ki≤0.1 nM))
CCc1cc(O)ccc1-c1ccc2c(-c3nc(C4=CCN(CCC(C)(C)O)C4)c[nH]3)n[nH]c2c1F [Example 55],3.16 to 10,–,–,A (A represents a pKi value ≥10 (Ki≤0.1 nM)),A (A represents a pKi value ≥10 (Ki≤0.1 nM))
CCc1cc(O)ccc1-c1ccc2c(-c3nc(C4=CCN(CCCOC)CC4)c[nH]3)n[nH]c2c1 [Example 56],3.16 to 10,–,–,A (A represents a pKi value ≥10 (Ki≤0.1 nM)),A (A represents a pKi value ≥10 (Ki≤0.1 nM))
CCc1cc(O)ccc1-c1ccc2c(-c3nc(C4=CCN(C(C)C5CC(O)C5)CC4)c[nH]3)n[nH]c2c1F (stereo not drawn) [Example 58],3.16 to 10,–,–,A (A represents a pKi value ≥10 (Ki≤0.1 nM)),A (A represents a pKi value ≥10 (Ki≤0.1 nM))
CCc1cc(O)ccc1-c1ccc2c(-c3nc(C4=CCN(CCCOC)CC4)c[nH]3)n[nH]c2c1F [Example 59],10 to 31.6,0.1 to 1,0.1 to 1,–,–
CCc1cc(O)ccc1-c1ccc2c(-c3nc(C4=CCN(CC5COC5)CC4)c[nH]3)n[nH]c2c1F [Example 60],10 to 31.6,0.1 to 1,–,A (A represents a pKi value ≥10 (Ki≤0.1 nM)),–
CCc1cc(O)ccc1-c1ccc2c(-c3nc(C4=CCN(C5CCOCC5)CC4)c[nH]3)n[nH]c2c1F [Example 61],10 to 31.6,0.1 to 1,–,A (A represents a pKi value ≥10 (Ki≤0.1 nM)),–
CCc1cc(O)ccc1-c1ccc2c(-c3nc(C4=CCN(CC5CCCO5)CC4)c[nH]3)n[nH]c2c1F (stereo not drawn) [Example 62],10 to 31.6,0.1 to 1,–,A (A represents a pKi value ≥10 (Ki≤0.1 nM)),–
CCc1cc(O)ccc1-c1ccc2c(-c3nc(C4=CCN(CC5CCCOC5)CC4)c[nH]3)n[nH]c2c1F (stereo not drawn) [Example 63],10 to 31.6,0.1 to 1,0.1 to 1,–,–
CCc1cc(O)ccc1-c1ccc2c(-c3nc(C4=CCCN(CCCOC)C4)c[nH]3)n[nH]c2c1 [Example 65],3.16 to 10,0.1 to 1,0.1 to 1,–,–
CCc1cc(O)ccc1-c1ccc2c(-c3nc(C4=CCCN(C(C)C5CC(O)C5)C4)c[nH]3)n[nH]c2c1F (stereo not drawn) [Example 66],10 to 31.6,0.1 to 1,–,A (A represents a pKi value ≥10 (Ki≤0.1 nM)),–
CCc1cc(O)ccc1-c1ccc2c(-c3nc(C4=CCCN(CCCOC)C4)c[nH]3)n[nH]c2c1F [Example 67],10 to 31.6,0.1 to 1,0.1 to 1,–,–
CCc1cc(O)ccc1-c1ccc2c(-c3nc(C4=CCCN(CC5COC5)C4)c[nH]3)n[nH]c2c1F [Example 68],10 to 31.6,0.1 to 1,0.1 to 1,–,–
CCc1cc(O)ccc1-c1ccc2c(-c3nc(C4=CCCN(C(=O)[C@@H](N)C(C)(C)O)C4)c[nH]3)n[nH]c2c1 [Example 165],10 to 31.6,0.1 to 1,–,–,–
CCc1cc(O)ccc1-c1ccc2c(-c3nc(C4=C[C@H](CO)N(CCS(C)(=O)=O)C4)c[nH]3)n[nH]c2c1F [Example 279],31.6 to 100,0.1 to 1,–,–,–
CCc1cc(O)ccc1-c1ccc2c(-c3nc(C4=C[C@H](CO)N(CCS(=O)(=O)NC)C4)c[nH]3)n[nH]c2c1F [Example 280],100 to 316,–,–,A (A represents a pKi value ≥10 (Ki≤0.1 nM)),–
